Assay results reported in Sander's compilation of Henry's law constants (doi:10.1016/0045-6535(85)90029-3).

Assay: Henry solubility constant Hcp at 298.15 K (mol/(m3 Pa))
Settings: reference: Oliver (1985)

## ClC(Cl)=C(Cl)C(Cl)=C(Cl)Cl [hexachlorobutadiene]
  Henry solubility constant Hcp: 0.0023

## Cc1cc(Cl)c(Cl)cc1Cl [2,4,5-trichloromethylbenzene]
  Henry solubility constant Hcp: 0.0066

## Clc1ccc(Cl)c(-c2ccccc2Cl)c1 [2,2',5-trichlorobiphenyl]
  Henry solubility constant Hcp: 0.049

## ClC(Cl)=C(Cl)c1c(Cl)c(Cl)c(Cl)c(Cl)c1Cl [octachlorostyrene]
  Henry solubility constant Hcp: 0.076

## Cc1c(Cl)ccc(Cl)c1Cl [2,3,6-trichloromethylbenzene]
  Henry solubility constant Hcp: 0.0066

## Clc1ccc(Cl)c(-c2cc(Cl)ccc2Cl)c1 [2,2',5,5'-tetrachlorobiphenyl]
  Henry solubility constant Hcp: 0.082

## Clc1cccc(Cl)c1 [1,3-dichlorobenzene]
  Henry solubility constant Hcp: 0.0055

## Clc1cc(Cl)c(-c2cc(Cl)c(Cl)cc2Cl)cc1Cl [2,2',4,4',5,5'-hexachlorobiphenyl]
  Henry solubility constant Hcp: 0.16

## Clc1cccc(-c2cccc(Cl)c2Cl)c1Cl [2,2',3,3'-tetrachlorobiphenyl]
  Henry solubility constant Hcp: 0.082

## Clc1cc(Cl)c(Cl)cc1Cl [1,2,4,5-tetrachlorobenzene]
  Henry solubility constant Hcp: 0.0099

## Clc1ccc(Cl)c(-c2cc(Cl)c(Cl)cc2Cl)c1 [2,2',4,5,5'-pentachlorobiphenyl]
  Henry solubility constant Hcp: 0.14

## Clc1cc(Cl)cc(Cl)c1 [1,3,5-trichlorobenzene]
  Henry solubility constant Hcp: 0.0052

## Cc1c(Cl)c(Cl)c(Cl)c(Cl)c1Cl [pentachloromethylbenzene]
  Henry solubility constant Hcp: 0.013

## Clc1ccc(Cl)cc1 [1,4-dichlorobenzene]
  Henry solubility constant Hcp: 0.0066

## Clc1cccc(Cl)c1Cl [1,2,3-trichlorobenzene]
  Henry solubility constant Hcp: 0.011
